In the assay the test system is nude mice, HT29 intrarenal xenograft, tumor weight T/C. The experiment in a line: NCI In Vivo Anticancer Drug Screen. Data for tumor model HT29;CX-1 Human Adenocarcinoma (MER+) (intrarenal inoculation) in NU/NU Swiss (nude) mice. As to conditions: endpoint: mean tumor weight change, higher = larger tumour. The essentials: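 Endpoint measured as tumor size or survival; ratio reported is treated group over vehicle controls.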

Where [1] appears, read: dose: 50.0 mg/kg/injection, schedule: Q01DX010 (sc), vehicle: saline with Tween-80.
Setting [2] is: dose: 150.0 mg/kg/injection, schedule: Q04DX004 (sc), vehicle: saline with Tween-80.
Setting [3] is: dose: 300.0 mg/kg/injection, schedule: Q04DX004 (sc), vehicle: saline with Tween-80.
Where [4] appears, read: dose: 600.0 mg/kg/injection, schedule: Q04DX004 (sc), vehicle: saline with Tween-80.
[5] abbreviates: dose: 1200.0 mg/kg/injection, schedule: Q04DX004 (sc), vehicle: saline with Tween-80.
The mark [6] stands for this setting: dose: 300.0 mg/kg/injection, schedule: Q04DX004 (sc), vehicle: Klucel (hydroxypropylcellulose) (HPC).
The mark [7] stands for this setting: dose: 600.0 mg/kg/injection, schedule: Q04DX004 (sc), vehicle: Klucel (hydroxypropylcellulose) (HPC).
[8] abbreviates: dose: 50.0 mg/kg/injection, schedule: Q04DX004 (sc), vehicle: saline with Tween-80.
Setting [9] is: dose: 100.0 mg/kg/injection, schedule: Q04DX004 (sc), vehicle: saline with Tween-80.

Values joined by “and” are separate entries in the source; they are usually repeats but may differ in a detail not shown here. Identical values can stand only once. Results filed as inconclusive are left out.

As for `CN(C)CCOc1ccc2c(c1)C/C(=C/c1ncc([N+](=O)[O-])n1C)C2=O`, the T/C by setting is: under setting [1], 83 % of control; (dose: 100.0 mg/kg/injection, schedule: Q01DX010 (sc), vehicle: saline with Tween-80) 78 % of control; (dose: 200.0 mg/kg/injection, schedule: Q01DX010 (sc), vehicle: saline with Tween-80) 18 % of control; (dose: 400.0 mg/kg/injection, schedule: Q01DX010 (sc), vehicle: saline with Tween-80) 93 % of control.
Consider `NC(=O)/C=C/c1c[nH]c2nccnc12`, for which the T/C is, setting by setting: (dose: 25.0 mg/kg/injection, schedule: Q04DX004 (sc), vehicle: water) 114 % of control; (dose: 50.0 mg/kg/injection, schedule: Q04DX004 (sc), vehicle: water) 64 % of control; (dose: 100.0 mg/kg/injection, schedule: Q04DX004 (sc), vehicle: water) 86 % of control; (dose: 200.0 mg/kg/injection, schedule: Q04DX004 (sc), vehicle: water) 102 % of control.
Consider `COc1c(C=O)c2c(c(OC)c1OC)-c1ccc(OC)c(=O)cc1[C@@H](NC(C)=O)CC2`, for which the T/C is, setting by setting: (dose: 18.75 mg/kg/injection, schedule: Q04DX004 (sc), vehicle: Klucel (hydroxypropylcellulose) (HPC)) 70 % of control; (dose: 37.5 mg/kg/injection, schedule: Q04DX004 (sc), vehicle: Klucel (hydroxypropylcellulose) (HPC)) 71 % of control.
As for `COc1cc2cc(c1Cl)N(C)C(=O)C[C@H](OC(=O)[C@H](C)N(C)C(C)=O)[C@]1(C)O[C@H]1[C@H](C)[C@@H]1C[C@@](O)(NC(=O)O1)[C@H](OC)C=C/C=C(\C)C2`, the T/C by setting is: (dose: 50.0 micrograms/kg/injection, schedule: Q01DX010 (sc), vehicle: Klucel (hydroxypropylcellulose) (HPC)) 40 % of control; (dose: 100.0 micrograms/kg/injection, schedule: Q01DX010 (sc), vehicle: Klucel (hydroxypropylcellulose) (HPC)) 93 % of control; (dose: 200.0 micrograms/kg/injection, schedule: Q01DX010 (sc), vehicle: Klucel (hydroxypropylcellulose) (HPC)) 24 % of control.
In the case of `CC(=O)Nc1cscc1NC(C)=O`, the T/C by setting is: (dose: 75.0 mg/kg/injection, schedule: Q04DX004 (sc), vehicle: saline with Tween-80) 84 % of control; under setting [2], 81 % of control; under setting [3], 155 % of control; under setting [4], 155 % of control; under setting [5], 82 % of control; (dose: 2400.0 mg/kg/injection, schedule: Q04DX004 (sc), vehicle: saline with Tween-80) 118 % of control.
In the case of `CCN1/C(=C/C=C/C=C/c2sc3ccccc3[n+]2CC)Sc2ccccc21`, the T/C by setting is: (dose: 0.38 mg/kg/injection, schedule: Q04DX004 (sc), vehicle: suspension in saline) 77 % of control; (dose: 0.75 mg/kg/injection, schedule: Q04DX004 (sc), vehicle: suspension in saline) 72 % of control; (dose: 1.5 mg/kg/injection, schedule: Q04DX004 (sc), vehicle: suspension in saline) 104 % of control; (dose: 3.0 mg/kg/injection, schedule: Q04DX004 (sc), vehicle: suspension in saline) 89 % of control.
For `CO[C@H]1C[C@@H]2CC[C@@H](C)[C@@](O)(O2)C(=O)C(=O)N2CCCC[C@H]2C(=O)O[C@H]([C@H](C)C[C@@H]2CC[C@@H](O)[C@H](OC)C2)CC(=O)[C@H](C)C=C(C)[C@@H](O)[C@@H](OC)C(=O)[C@H](C)C[C@H](C)/C=C/C=C/C=C1C`, the T/C under setting [1] was 28 % of control.
As to `C[C@H](N)C(=O)N[C@@H]1[C@H]2C(=C(O)C[C@@H](O)[C@@H]2O)C(=O)O[C@@H]1C`, the T/C runs as follows: (dose: 300.0 mg/kg/injection, schedule: Q04DX004 (sc), vehicle: saline) 107 % of control; (dose: 600.0 mg/kg/injection, schedule: Q04DX004 (sc), vehicle: saline) 81 % of control; (dose: 1200.0 mg/kg/injection, schedule: Q04DX004 (sc), vehicle: saline) 68 % of control; (dose: 2400.0 mg/kg/injection, schedule: Q04DX004 (sc), vehicle: saline) 92 % of control.
As for `COc1ccc2c(c1)CCn1c(C)c(COC(=O)NC(C)C)c(COC(=O)NC(C)C)c1-2`, the T/C (dose: 300.0 mg/kg/injection, schedule: Q04DX004 (sc), vehicle: distilled water + Tween-80) was 165 % of control and the T/C (dose: 600.0 mg/kg/injection, schedule: Q04DX004 (sc), vehicle: distilled water + Tween-80) was 191 % of control.
For the compound `CN(C)C(=O)SC1=C(c2c(Cl)cccc2Cl)C(=O)c2ccccc21`, the T/C is 95 % of control under setting [6] and 158 % of control under setting [7].
As to `Cc1ccccc1N(CC1CO1)CC1CO1` (centres undefined), the T/C is, setting by setting: (dose: 50.0 mg/kg/injection, schedule: Q01DX010 (sc), vehicle: suspension in saline) 157 % of control; (dose: 100.0 mg/kg/injection, schedule: Q01DX010 (sc), vehicle: suspension in saline) 38 % of control; (dose: 200.0 mg/kg/injection, schedule: Q01DX010 (sc), vehicle: suspension in saline) 15 % of control; (dose: 800.0 mg/kg/injection, schedule: Q01DX010 (sc), vehicle: suspension in saline) 67 % of control.
`Cc1cc(NCCCCCCCNc2cc(C)nc3cc(N)ccc23)c2ccc(N)cc2n1`: the T/C was 32 % of control (dose: 12.5 mg/kg/injection, schedule: Q04DX004 (sc), vehicle: saline with Tween-80); 56 % of control (dose: 25.0 mg/kg/injection, schedule: Q04DX004 (sc), vehicle: saline with Tween-80); 51 % of control under setting [8].
Turning to `CCCCn1cnc2c(=S)nc[nH]c21`, the T/C by setting is: (dose: 150.0 mg/kg/injection, schedule: Q04DX004 (sc), vehicle: suspension in saline) 68 % of control; (dose: 300.0 mg/kg/injection, schedule: Q04DX004 (sc), vehicle: suspension in saline) 120 % of control; (dose: 600.0 mg/kg/injection, schedule: Q04DX004 (sc), vehicle: suspension in saline) 150 % of control.
On to `COC12C(COC(N)=O)C3=C(C(=O)C(C)=C(N)C3=O)N1CC1C2N1C` (centres undefined), for which the T/C runs as follows: (dose: 2.0 mg/kg/injection, schedule: Q01DX010 (sc), vehicle: saline) 114 % of control; (dose: 4.0 mg/kg/injection, schedule: Q01DX010 (sc), vehicle: saline) 8 % of control and 12 % of control.
On to `CCC1=C2C(=O)c3ccccc3C2=C(C)S(=O)(=O)O1`, for which the T/C was 70 % of control under setting [2], 50 % of control under setting [3] and 89 % of control under setting [5].
As to `Nc1ncnc2c1ncn2C1OC(CO)C(O)C1O` (centres undefined), the T/C (dose: 37.5 mg/kg/injection, schedule: Q04DX004 (sc), vehicle: saline) was 97 % of control; the T/C (dose: 75.0 mg/kg/injection, schedule: Q04DX004 (sc), vehicle: saline) is 84 % of control; the T/C (dose: 150.0 mg/kg/injection, schedule: Q04DX004 (sc), vehicle: Klucel (hydroxypropylcellulose) (HPC)) was 67 % of control; the T/C (dose: 150.0 mg/kg/injection, schedule: Q04DX004 (sc), vehicle: saline) is 44 % of control; the T/C under setting [6] is 78 % of control; the T/C under setting [7] is 94 % of control. Besides, the T/C (dose: 1200.0 mg/kg/injection, schedule: Q04DX004 (sc), vehicle: Klucel (hydroxypropylcellulose) (HPC)) was 66 % of control.
Turning to `CCCCCCCCCCCCCCCCCC(=O)Nc1ccn(C2OC(CO)C(O)C2O)c(=O)n1` (centres undefined), the T/C is 49 % of control and 61 % of control under setting [2]; 67 % of control and 89 % of control under setting [3]; 14 % of control and 32 % of control under setting [5].
Consider `CCOC(=O)NC1=C(N2CC2)C(=O)C(NC(=O)OCC)=C(N2CC2)C1=O`, for which the T/C (dose: 3.13 mg/kg/injection, schedule: Q04DX004 (sc), vehicle: suspension in saline) is 55 % of control.
With `O=C(Nc1nncs1)c1cccs1`, the T/C under setting [8] was 61 % of control; the T/C under setting [9] was 93 % of control; the T/C (dose: 200.0 mg/kg/injection, schedule: Q04DX004 (sc), vehicle: saline with Tween-80) is 72 % of control; the T/C under setting [3] was 106 % of control; the T/C (dose: 400.0 mg/kg/injection, schedule: Q04DX004 (sc), vehicle: saline with Tween-80) was 95 % of control; the T/C under setting [4] was 121 % of control. Moreover, the T/C under setting [5] is 110 % of control.
Regarding `OC1(CSc2ccccc2)CCCCC1`, the T/C under setting [9] is 113 % of control.
Turning to `CCCCC(=O)OCC(=O)[C@]1(O)Cc2c(O)c3c(c(O)c2[C@@H](OC2CC(NC(=O)C(F)(F)F)C(O)C(C)O2)C1)C(=O)c1c(OC)cccc1C3=O` (some centres undefined), the T/C (dose: 64.0 mg/kg/injection, schedule: Q01DX010 (sc), vehicle: distilled water + Tween-80) is 61 % of control; the T/C (dose: 128.0 mg/kg/injection, schedule: Q01DX010 (sc), vehicle: distilled water + Tween-80) was 83 % of control; the T/C (dose: 256.0 mg/kg/injection, schedule: Q01DX010 (sc), vehicle: distilled water + Tween-80) was 46 % of control.

(Values after PubChem BioAssay AID206 (DTP/NCI, 2004).)
